The values below come from ChEMBL document CHEMBL1201862, “PubChem BioAssay data set” (2004).

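Five compound concentrations were applied to cells in 96-well plates for 48 hours; endpoints were derived by simple linear interpolation of the resulting dose-response curve. GI50 = concentration required for 50% inhibition of growth.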 The source made the active and inactive calls. Cut-off read from the data, not from the text of the source: active = GI50 up to about 1.1 µM and inactive = higher.

Some test systems named below: SNB-19; SK-MEL-5; NCI-H460; LOX IMVI; EKVX; HCC 2998; COLO 205; MOLT-4; MDA-N; IGROV-1; KM12; RPMI-8226; 786-0; SR; T47D; OVCAR-4; CCRF-CEM; Malme-3M; NCI-H522.
Common to all, as to test: inhibition of tumour cell growth, NCI panel, 48 h

With `CN(C)CC1CCC/C(=C\c2ccc(OC(=O)/C=C/c3ccc(Cl)cc3)cc2)C1=O` (stereo not given), the GI50 in the assay on SNB-19 was 8.43 µM (inactive); with SK-MEL-5, 2.16 µM (inactive); in the assay with NCI-H460, 8.02 µM (inactive); in the assay on LOX IMVI, 1.58 µM (inactive); in the assay with EKVX, 7.14 µM (inactive); in the assay on HCC 2998, 5.43 µM (inactive). For the same compound, the GI50 in the assay on COLO 205 was 0.78 µM (active); in the assay on MOLT-4 it was 1.05 µM (active); in the assay with MDA-N, 6.9 µM (inactive); with IGROV-1, 1.43 µM (inactive); in the assay with KM12, 1.47 µM (inactive); with RPMI-8226, 0.294 µM (active). Moreover, the GI50 in the assay with 786-0 was 1.07 µM (active); in the assay on SR, 1.09 µM (active); with T47D it was 1.15 µM (inactive); with OVCAR-4, 12.5 µM (inactive); in the assay with CCRF-CEM, 1.06 µM (active); in the assay on Malme-3M, 9.06 µM (inactive). The GI50 in the assay with NCI-H522 was 0.916 µM (active).

Turning to `Cc1ccc(OCC2OC(n3cnc4nc(Cl)nc(Cl)c43)CC2Oc2ccc(C)cc2)cc1` (stereo not given), the GI50 in the assay on SNB-19 is 15.7 µM (inactive); in the assay on SK-MEL-5 it was 16.3 µM (inactive); in the assay on NCI-H460, 6.55 µM (inactive); in the assay on LOX IMVI, 2 µM (inactive); with EKVX, 11.2 µM (inactive); in the assay on HCC 2998, 3.39 µM (inactive). Moreover, the GI50 was 9.25 µM (inactive) in the assay with COLO 205; 2.01 µM (inactive) in the assay on MOLT-4; 3.74 µM (inactive) with MDA-N; 5.36 µM (inactive) in the assay with IGROV-1; 8.73 µM (inactive) in the assay with KM12; 2.62 µM (inactive) in the assay with RPMI-8226. In addition, the GI50 with 786-0 is 5.25 µM (inactive); in the assay with SR, 1.78 µM (inactive); in the assay on T47D, 6.19 µM (inactive); in the assay on OVCAR-4 it was 15.7 µM (inactive); in the assay with CCRF-CEM it was 2.99 µM (inactive); in the assay with Malme-3M it was 13.6 µM (inactive). In addition, the GI50 with NCI-H522 was 1.84 µM (inactive).

For `O=C1c2ccccc2NC(=S)[C@@H]2CCCN12`, the GI50 in the assay on SNB-19, in the assay with SK-MEL-5, in the assay with NCI-H460, in the assay with LOX IMVI, with EKVX and in the assay on HCC 2998 was > 100 µM (inactive) in each case. Further, the GI50 with COLO 205, with MOLT-4, with MDA-N, in the assay on IGROV-1, with KM12 and with RPMI-8226 was > 100 µM (inactive) each time. Moreover, the GI50 with 786-0, in the assay on SR, in the assay on T47D, in the assay on OVCAR-4, in the assay on CCRF-CEM and in the assay on Malme-3M was > 100 µM (inactive) each time. Moreover, the GI50 with NCI-H522 is > 100 µM (inactive).

For `N/N=c1\[nH]c2ccccc2o1`, the GI50 in the assay on SNB-19, with SK-MEL-5, with NCI-H460, in the assay with LOX IMVI, in the assay on EKVX and with HCC 2998 was > 100 µM (inactive) each time. The GI50 in the assay on COLO 205 was > 100 µM (inactive); in the assay with MOLT-4, 24.2 µM (inactive); with MDA-N, > 100 µM (inactive); in the assay on IGROV-1 it was > 100 µM (inactive); in the assay on KM12, > 100 µM (inactive); in the assay with RPMI-8226, 67.6 µM (inactive). The GI50 is 86.7 µM (inactive) in the assay with 786-0; 52 µM (inactive) with SR; 30.1 µM (inactive) in the assay on T47D; 46.5 µM (inactive) with OVCAR-4; 31.7 µM (inactive) in the assay on CCRF-CEM; > 100 µM (inactive) in the assay on Malme-3M. Besides, the GI50 in the assay with NCI-H522 is 57.1 µM (inactive).

Take `COC(=O)C1=C(C)NC(C)=C(C(=O)OC)C1c1ccc(/[N+]([O-])=C/c2ccccc2)cc1`: the GI50 in the assay with SNB-19 is 94.2 µM (inactive); in the assay with SK-MEL-5 it was > 100 µM (inactive); with NCI-H460, 66.8 µM (inactive); in the assay on LOX IMVI, 45 µM (inactive); with EKVX, 71.6 µM (inactive); in the assay on HCC 2998, > 100 µM (inactive). For the same compound, the GI50 was 19 µM (inactive) in the assay on COLO 205; 24.1 µM (inactive) in the assay with MOLT-4; 34.4 µM (inactive) in the assay on MDA-N; > 100 µM (inactive) with IGROV-1; > 100 µM (inactive) with KM12; 66.1 µM (inactive) with RPMI-8226. Moreover, the GI50 with 786-0 is 17.3 µM (inactive); in the assay with SR it was 24.1 µM (inactive); in the assay on T47D, 19.8 µM (inactive); in the assay with OVCAR-4, 17.3 µM (inactive); in the assay with CCRF-CEM, 17 µM (inactive); with Malme-3M, 17.3 µM (inactive). Besides, the GI50 with NCI-H522 was 14.6 µM (inactive).

On to `COc1cc(/C=C2\CC(C)C/C(=C\c3ccc(O)c(OC)c3)C2=O)ccc1O` (stereo not given), for which the GI50 in the assay on SNB-19 was 10.2 µM (inactive); in the assay with SK-MEL-5, 1.82 µM (inactive); in the assay with NCI-H460, 2.88 µM (inactive); with LOX IMVI it was 2.29 µM (inactive); in the assay on EKVX, 13.8 µM (inactive); in the assay with HCC 2998, 3.21 µM (inactive). For the same compound, the GI50 with COLO 205 was 10.9 µM (inactive); with MOLT-4 it was 2.29 µM (inactive); in the assay on MDA-N, 2.54 µM (inactive); in the assay on IGROV-1, 2.4 µM (inactive); with KM12, 1.85 µM (inactive); in the assay on RPMI-8226, 3.58 µM (inactive). Further, the GI50 with 786-0 was > 20.2 µM (inactive); in the assay on SR, 2.86 µM (inactive); in the assay with T47D, 1.6 µM (inactive); in the assay on OVCAR-4, 2.52 µM (inactive); in the assay with CCRF-CEM, 2.56 µM (inactive); in the assay on Malme-3M it was 1.9 µM (inactive). Besides, the GI50 in the assay with NCI-H522 was 2.11 µM (inactive).

For the compound `CCC1(O)CC(OC2CC(N(C)C)C(OC3CC(O)C(OC4CCC(=O)C(C)O4)C(C)O3)C(C)O2)c2c(cc3c(c2O)C(=O)c2c(O)ccc(O)c2C3=O)C1C(=O)OC` (stereo not given), the GI50 with SNB-19 was < 0.0127 µM (active); in the assay with SK-MEL-5, < 0.01 µM (active); in the assay on NCI-H460 it was < 0.01 µM (active); in the assay on LOX IMVI, < 0.01 µM (active); with EKVX, < 0.01 µM (active); in the assay with HCC 2998 it was < 0.01 µM (active). Moreover, the GI50 with COLO 205, with MOLT-4, in the assay on MDA-N, in the assay on IGROV-1, in the assay with KM12 and in the assay with RPMI-8226 was < 0.01 µM (active) each time. Also, the GI50 with 786-0, in the assay with SR, with T47D, in the assay with OVCAR-4, in the assay with CCRF-CEM and in the assay with Malme-3M was < 0.01 µM (active) each time. Besides, in the assay on NCI-H522, the GI50 was < 0.01 µM (active).

As for `c1ccc(Cn2c(-c3ccc(-c4ccccc4)cc3)cc3ccccc32)cc1`, the GI50 with SNB-19, in the assay with SK-MEL-5, in the assay with NCI-H460, with LOX IMVI, in the assay on EKVX and with HCC 2998 was > 100 µM (inactive) throughout. Moreover, the GI50 is > 100 µM (inactive) in the assay on COLO 205; > 100 µM (inactive) in the assay with MOLT-4; > 100 µM (inactive) with MDA-N; 67.5 µM (inactive) in the assay with IGROV-1; > 100 µM (inactive) with KM12; > 100 µM (inactive) in the assay on RPMI-8226. Moreover, the GI50 was > 100 µM (inactive) with 786-0; > 100 µM (inactive) in the assay with SR; > 100 µM (inactive) in the assay with T47D; > 100 µM (inactive) with OVCAR-4; > 100 µM (inactive) in the assay on CCRF-CEM; 60 µM (inactive) with Malme-3M. In the assay with NCI-H522, the GI50 is 28.2 µM (inactive).

In the case of `CCN(CC)Cc1nc2sc3c(c2c(=O)n1-c1ccccc1)CCCC3`, the GI50 was 35.6 µM (inactive) in the assay with SNB-19; 16.3 µM (inactive) in the assay with SK-MEL-5; 19.6 µM (inactive) in the assay with NCI-H460; 13.8 µM (inactive) in the assay with LOX IMVI; 19.8 µM (inactive) with EKVX; 17.6 µM (inactive) in the assay on HCC 2998. Besides, the GI50 in the assay with COLO 205 is 17.7 µM (inactive); with MOLT-4, 17.4 µM (inactive); with MDA-N it was 19.7 µM (inactive); in the assay with IGROV-1, 18.7 µM (inactive); in the assay on KM12, 46.3 µM (inactive); with RPMI-8226 it was 26.7 µM (inactive). For the same compound, the GI50 with 786-0 was 17.7 µM (inactive); with SR, 34.5 µM (inactive); in the assay with T47D it was 18.8 µM (inactive); in the assay on OVCAR-4, 15.6 µM (inactive); in the assay on CCRF-CEM, 28.4 µM (inactive); in the assay on Malme-3M it was 23.3 µM (inactive). In the assay with NCI-H522, the GI50 is 21.8 µM (inactive).

On to `C=CCSC1=N/C(=C\c2ccc(OC)cc2)C(=O)N1CC=C`, for which the GI50 with SNB-19 was 84.3 µM (inactive); in the assay with SK-MEL-5, 15.6 µM (inactive); in the assay with NCI-H460 it was 27.6 µM (inactive); with LOX IMVI it was 33 µM (inactive); in the assay with EKVX it was 19.7 µM (inactive); with HCC 2998, 23.9 µM (inactive). Moreover, the GI50 in the assay on COLO 205 is 20.4 µM (inactive); with MOLT-4, 13.7 µM (inactive); in the assay on MDA-N it was 23.2 µM (inactive); in the assay on IGROV-1 it was > 100 µM (inactive); in the assay on KM12 it was 21.9 µM (inactive); in the assay with RPMI-8226, 15.5 µM (inactive). Besides, the GI50 with 786-0 was 25.5 µM (inactive); in the assay on SR it was 13.5 µM (inactive); with T47D, 16.2 µM (inactive); in the assay with OVCAR-4 it was 28.2 µM (inactive); in the assay on CCRF-CEM, 16.6 µM (inactive); in the assay on Malme-3M, 27.7 µM (inactive). Besides, the GI50 with NCI-H522 is 27.7 µM (inactive).
